# Experiments:
# [1] = tested on: human leukemia K562; assay: MTT assay, K562 cells; type: cell-based; conditions: 48 h, aminoguanidine present, mean ± SD of three determinations, max 50 µM tested
# Experimental: The cytotoxicities of the novel conjugates were assessed in vitro by the MTT assay in the presence of aminoguanidine (an inhibitor of amine oxidase) against three cell lines, human leukemia K562, cancer of colon HCT116 and human normal hepatocyte QSG-7701 [34]. […] Thus, compound 7f was selected for further investigation. Cell lines, K562, 7721 and HCT116 were obtained from American Type Culture Collection (ATCC, Shanghai, China). Cells were cultured in RPMI1640, supplemented with 10% heat-inactivated fetal calf serum (FCS), antibiotics (penicillin, 100 units/mL; streptomycin sulfate, 100 μg/mL) at 37 °C, in an atmosphere of 95% air and 5% CO2 under humidified conditions. Aminoguanidine (1 mM) was added as an inhibitor of amine oxidase derived from FCS and had no effect on the various parameters of the cell measured in this study. Chemosensitivity was assessed using the 3-(4,5-dimethylthiazol-2-yl)-2,5-diphenyltetrazolium bromide (MTT) assay. […] After incubation for 4 h at 37 °C, the purple formazan crystals (i.e., a reduced form of MTT) generated from viable cells were dissolved by adding 100 μL 10% sodium dodecyl sulphate (SDS) in each well. The absorbance of each well was then read at 570 nm.
# [2] = tested on: cancer of colon HCT116; assay: MTT assay, HCT116 cells; type: cell-based; conditions: Homo sapiens, HCT-116, aminoguanidine present, mean ± SD of three determinations, max 50 µM tested
# Experimental: (§1) The cytotoxicities of the novel conjugates were assessed in vitro by the MTT assay in the presence of aminoguanidine (an inhibitor of amine oxidase) against three cell lines, human leukemia K562, cancer of colon HCT116 and human normal hepatocyte QSG-7701 [34]. […] Thus, compound 7f was selected for further investigation. Cell lines, K562, 7721 and HCT116 were obtained from American Type Culture Collection (ATCC, Shanghai, China). Cells were cultured in RPMI1640, supplemented with 10% heat-inactivated fetal calf serum (FCS), antibiotics (penicillin, 100 units/mL; streptomycin sulfate, 100 μg/mL) at 37 °C, in an atmosphere of 95% air and 5% CO2 under humidified conditions. Aminoguanidine (1 mM) was added as an inhibitor of amine oxidase derived from FCS and had no effect on the various parameters of the cell measured in this study. In addition, exponentially growing HCT116 or 7721 cells were seeded into 96-well plates at 5000 cells/well and allowed to attach overnight, and then 100 μL of MTT (1 mg/mL) was added. After incubation for 4 h at 37 °C, the MTT solution was removed and the remaining formazan crystals were dissolved with 150 μL DMSO in each well. The absorbance of each well was then read at 570 nm.
# [3] = tested on: human normal hepatocyte QSG-7701; assay: MTT assay, QSG-7701 cells; type: cell-based; conditions: QSG7701, aminoguanidine present, mean ± SD of three determinations, max 50 µM tested
# Experimental: as §1
IC50 [1],IC50 [2],melting point,SMILES,IC50 [3]
22.4 ± 1.21 µM,9.52 ± 3.31 µM,238.6 to 239.8 °C,"Cl.Cl.NCCCNCCCCCN1C(=O)c2cccc3cccc(c23)C1=O [Compound 7e, 2-[5-(3-Aminopropylamino)pentyl]1H-benz-[de]isoquinoline-1,3(2H)-dione dihydrochloride]",22.2 ± 0.67 µM
25.6 ± 3.74 µM,13.9 ± 2.68 µM,243.1 to 244.1 °C,"Cl.Cl.NCCNCCCCN1C(=O)c2cccc3cccc(c23)C1=O [Compound 7b, 2-[4-(2-Aminoethylamino)butyl]1H-benz-[de]isoquinoline-1,3(2H)-dione dihydrochloride]",33.9 ± 4.32 µM
41.4 ± 1.76 µM,11 ± 1.71 µM,230.6 to 231.8 °C,"Cl.Cl.NCCCCCCNCCCN1C(=O)c2cccc3cccc(c23)C1=O [Compound 7i, 2-[3-(6-Aminohexylamino)propyl]1H-benz-[de]isoquinoline-1,3(2H)-dione dihydrochloride]",> 50 µM
15.9 ± 1.53 µM,16.2 ± 4.28 µM,236.6 to 237.9 °C,"Cl.Cl.NCCCCNCCCCCN1C(=O)c2cccc3cccc(c23)C1=O [Compound 7h, 2-[5-(4-Aminobutylamino)pentyl]1H-benz-[de]isoquinoline-1,3(2H)-dione dihydrochloride]",18.8 ± 4.94 µM
48.8 ± 3.93 µM,19.3 ± 4.39 µM,233.4 to 235.1 °C,"Cl.Cl.NCCNCCCN1C(=O)c2cccc3cccc(c23)C1=O [Compound 7a, 2-[3-(2-Aminoethylamino)propyl]1H-benz-[de]isoquinoline-1,3(2H)-dione dihydrochloride]",> 50 µM
14 ± 3.32 µM,13.9 ± 2.54 µM,226.7 to 228.3 °C,"Cl.Cl.NCCCCNCCCCN1C(=O)c2cccc3cccc(c23)C1=O [Compound 7g, 2-[4-(4-Aminobutylamino)butyl]1H-benz-[de]isoquinoline-1,3(2H)-dione dihydrochloride]",12 ± 4.07 µM
19.7 ± 7.23 µM,8.95 ± 3.87 µM,233.1 to 234.2 °C,"Cl.Cl.NCCCNCCCN1C(=O)c2cccc3cccc(c23)C1=O [Compound 7d, 2-[3-(3-Aminopropylamino)propyl]1H-benz-[de]isoquinoline-1,3(2H)-dione dihydrochloride]",8.04 ± 3.35 µM
38.8 ± 1.76 µM,9.89 ± 1.11 µM,233.8 to 235.1 °C,"Cl.Cl.NCCNCCCCCN1C(=O)c2cccc3cccc(c23)C1=O [Compound 7c, 2-[5-(2-Aminoethylamino)pentyl]1H-benz-[de]isoquinoline-1,3(2H)-dione dihydrochloride]",> 50 µM
12.6 ± 0.81 µM,16.4 ± 1.75 µM,235.9 to 237.2 °C,"Cl.Cl.NCCCCCCNCCCCN1C(=O)c2cccc3cccc(c23)C1=O [Compound 7j, 2-[4-(6-Aminohexylamino)butyl]1H-benz-[de]isoquinoline-1,3(2H)-dione dihydrochloride]",13.1 ± 3.94 µM
15.9 ± 1.83 µM,9.95 ± 1.81 µM,229.1 to 230.3 °C,"Cl.Cl.NCCCCCCNCCCCCN1C(=O)c2cccc3cccc(c23)C1=O [Compound 7k, 2-[5-(6-Aminohexylamino)pentyl]1H-benz-[de]isoquinoline-1,3(2H)-dione dihydrochloride]",14.7 ± 3.91 µM

SMILES,IC50 [1],IC50 [2],melting point,IC50 [3]
"CN(C)CCN1C(=O)c2cccc3cc(N)cc(c23)C1=O [Amonafide, amonafide, reference compound]",10.1 ± 2.59 µM,6.86 ± 1.89 µM,,20.3 ± 2.43 µM

# From paper PMC6271870, “Study on the Synthesis, Biological Activity and Spectroscopy of Naphthalimide-Diamine Conjugates” (Molecules, 2014)
